Measurements from paper PMC6843786, “Temporin-SHa and Its Analogs as Potential Candidates for the Treatment of Helicobacter pylori” (Biomolecules, 2019).
Entries after “also recorded” stand apart in the source; their conditions may differ. Like-named read-outs stand apart in the source and are kept apart here. Non-standard residues stand in square brackets, D forms with d. Residues, ends and D or L forms follow the SMILES beside them.

Columns and labels:
H. pylori (ATCC 43504) [1] = test system: H. pylori (ATCC 43504)
Procedure: The bactericidal activity of peptides was assessed using the time kill assay as previously described with some modifications. Briefly, overnight liquid culture of H. pylori (ATCC 43504) was prepared and an optical density measurement (OD600nm) was taken to provide an estimation of cell numbers in the culture. Bacterial suspension was then centrifuged at 3000 rpm for 5 min and the bacterial pellet was then resuspended in sterile PBS pH6 at approximatively 10^7 CFU/mL. The pH of PBS was changed from 7 to 6 with HCl to mimic the micro-environment surrounding H. pylori in the stomach. Indeed, although the lumen of the stomach is around 1–2, H. pylori is able, through the activity of its urease, to create a local micro-environment around it of pH 6 [31]. In addition to PBS pH 6, the time kill assay was also performed in PBS pH 6 containing a mixture of porcine stomach mucins MUC2 and MUC3 (at 1 mg/mL, final concentration) or in the presence of human gastric cells N87 producing human mucus. In that particular case, N87 cells were seeded onto 96-wells plates and left to grow for 48–72 h until they reached confluence. At that time, wells were aspirated and bacterial suspension in PBS pH 6 were added to the wells. In all cases, resuspended bacteria (200 µL) were treated with peptides or the conventional antibiotic amoxicillin at a final concentration corresponding to five times their MIC. Bacteria were then incubated in micro-aerobic conditions at 37 °C using GasPak units. […] The petri dishes were then incubated 16 h at 37 °C in microaerophilic conditions before counting of growing colonies. The number of surviving bacteria was calculated using the number of observed colonies and the dilution factor. The experiment was done in triplicate.

H. pylori (ATCC 43504) [2] = assay: MIC after digestion by pepsin (resistance to pepsin)
Procedure: (§1) Briefly, after the growth of H. pylori in liquid culture the optical density (OD) of the bacterial suspensions were read at 600 nm and adjusted to one. Stock solutions of the peptides at 1 mM were prepared in sterile water. Bacteria were diluted in medium to reach bacterial density around 10^5 bacteria/mL. One-hundred microliters per well of bacterial suspension were then added into sterile polypropylene 96-well microplates (Greiner BioOne, Paris, France) and exposed to increasing concentrations of peptides (from zero to 100 µM, 1:2 serial dilution). […] Plates were incubated at 37 °C for 24 h for H. pylori (ATCC 43504) and for 4–7 days for the clinical strains. H. pylori was tested in microaerophilic conditions generated using micro-anaerobic BD GasPak system. At the end of the incubation, OD600nm was measured using microplate reader (Synergy Mx, Biotek, Colmar, France). The MIC was defined as the lowest concentration of drug that inhibited visible growth of the organism. Experiments were conducted in independent triplicate (n = 3).
(§2) It is also rich with mucus to protect it from the aggressive acidity. For this reason, the impact of mucins and pepsin on the activity of the peptides was investigated. The impact of the gastric mucins on peptide activity was evaluated using a combination of commercial porcine stomach mucins MUC2 and MUC3 (Sigma–Aldrich) at a final concentration of 1 mg/mL sterilized using 0.2 µm filter. This concentration was used based on the estimated concentration of mucins present in the mucus in vivo [27]. The effect of mucins on peptides activity was evaluated by MIC and by time killing assay as explained below. The resistance of the peptides to pepsin was tested as previously described with some changes. […] This concentration was used since it corresponds the pepsin concentration in the stomach (0.5–1 mg/mL).

H. pylori (ATCC 43504) [3] = assay: Membrane permeabilization assay (propidium iodide); conditions: propidium iodide, CTAB 300 µM = 100%
Procedure: Bacterial membrane permeabilization was evaluated using the cell-impermeable DNA/RNA probe propidium iodide as previously explained. Logarithmic growing bacterial suspension of H. pylori (ATCC 43504) was prepared from overnight bacterial suspension after 1:10 dilution. After 3 h incubation at 37 °C, in microaerophilic condition, bacterial suspensions were centrifuged for 5 min at 3000× g. Cell pellets were then resuspended in sterile PBS at about […]. Propidium iodide (solution at 1 mg/mL, Sigma Aldrich) was then added to the suspension at a final concentration of 60 µM. 100 µL of this suspension were then transferred into 96-well black plates and were exposed to increasing concentrations of peptides obtained by serial dilution (from zero to 100 µM, 1:2 dilution). […] Kinetics of fluorescence variations (excitation at 530 nm and emission at 590 nm) were then recorded over 240 min of incubation at 37 °C in micro-aerobic condition using a microplate reader (Biotek, Synergy Mx). The effect of the peptides on the membrane integrity was expressed in percentage of permeabilization, CTAB at 300 µM being used as positive control giving 100% permeabilization. All experiments were done in triplicate.

H. pylori (ATCC 43504) [4] = test system: H. pylori (ATCC 43504); remark: listed apart in the source
Procedure: as §1, §2

N87 cells = assay: In vitro toxicity assay using human gastric cells (resazurin); type: cell-based
Procedure: [26] Human gastric cells N87 (ATCC CRL-5822) were cultured in RPMI-1640 medium supplemented with 10% fetal calf serum (FCS), 1% L-glutamine and 1% antibiotics (all from Invitrogen, Carlsbad, CA, USA) and were routinely seeded onto 25 cm^2 flasks maintained in a 5% CO2 incubator at 37 °C. For the toxicity assay, cells grown on 25 cm^2 flasks were detached using trypsin–EDTA solution (from Thermofisher), counted using Mallasez counting chamber and seeded into 96-well cell culture plates (Greiner Bio-one) at approximately 10^4 cells per well. The cells were left to grow for 48–72 h at 37 °C in a 5% CO2 incubator until they reached confluence. Plates were then aspirated and increasing concentrations of peptides were added to the cells for 48 h at 37 °C in a 5% CO2 incubator, volume of water corresponding to the volume of peptides being used as negative control. At the end of the incubation, wells were aspirated, and cell viability was evaluated using resazurin-based in vitro toxicity assay kit (Sigma-Aldrich) following manufacturer’s instructions. Briefly, resazurin stock solution was diluted 1:10 in sterile PBS containing calcium and magnesium (PBS^++, pH 7.4) and empty wells were filled with 100 µL of the diluted solution. After 4 h incubation at 37 °C, fluorescence intensity was measured using microplate reader (Synergy Mx, Biotek) with an excitation wavelength of 530 nm and an emission wavelength of 590 nm. The fluorescence values were normalized by the controls and expressed as percent viability.

CC[C@H](C)[C@H](NC(=O)CNC(=O)[C@H](CO)NC(=O)[C@H](CC(C)C)NC(=O)[C@@H](N)Cc1ccccc1)C(=O)N[C@H](C(=O)NCC(=O)N[C@@H](CCSC)C(=O)N[C@@H](CC(C)C)C(=O)N[C@H](C)C(=O)N[C@@H](CCCCN)C(=O)N[C@@H](CC(C)C)C(=O)N[C@@H](Cc1ccccc1)C(N)=O)C(C)C [NST1, H-Phe^1-Leu^2-Ser^3-Gly^4-Ile^5-Val^6-Gly^7-Met^8-Leu^9-D-Ala^10-Lys^11-Leu^12-Phe^13-NH2] (H-FLSGIVGML[dA]KLF-NH2)
decrease of the number of CFUs (H. pylori (ATCC 43504) [1]; 20 min, PBS pH 6, 5-times MIC): three
killing (H. pylori (ATCC 43504) [1]; 20 min, PBS pH 6, 5-times MIC): 99%
killing (H. pylori (ATCC 43504) [1]; 60 min, presence of mucus (porcine MUC2/MUC3 1 mg/mL or N87 cells), 5-times MIC): 91–98%
survival (H. pylori (ATCC 43504) [1]; 3 h, PBS pH 6, 5-times MIC): 0%
MIC after Digestion by Pepsin (H. pylori (ATCC 43504) [2]; 4 h at 37 °C with pepsin 1 mg/mL in HCl pH 2): 25 µM
resistance to pepsin (in words) (H. pylori (ATCC 43504) [2]; 4 h at 37 °C with pepsin 1 mg/mL, HCl pH 2): partial resistance towards pepsin; also recorded: partial resistance to the digestion by pepsin
membrane permeabilization of H. pylori (ranking in words) (H. pylori (ATCC 43504) [3]): strongest permeabilization
increase of MIC in the presence of mucins (H. pylori (ATCC 43504) [4]; MUC2 and MUC3 at 1 mg/mL versus no mucins): two
MIC in the Presence of mucins (H. pylori (ATCC 43504) [4]; porcine gastric mucins MUC2 and MUC3 at 1 mg/mL): 3.12 µM
IC50 (N87 cells; 48 h incubation, resazurin cell viability, read-out: IC50 on N87 Cells): 90.4 ± 10.4 µM
increase in toxicity to human gastric cells compared to temporin-SHa (N87 cells; from IC50 on N87 cells): ~17 fold
